Reference: US12643905B2, “Spiropyrrolidine derived antiviral agents” (priority 2021, dated 2026)

Assays:
[1] = system: 229E human corona virus (hCoV); assay: 229E live virus assay (CPE, ATPlite readout in MRC-5 cells); format: cell-based, hCoV-229E; details: Human coronavirus 229E, MRC5, 144 h, MOI 0.05, 6 days at 34° C., run in duplicate
[2] = biological target: SARS-CoV-2 3CL-protease (Severe acute respiratory syndrome coronavirus 2, UniProt P0DTD1); assay: SARS-CoV-2 3C-like (3CL) protease fluorescence assay (FRET); format: biochemical; details: recombinant SARS-CoV-2 3CL-protease 10 nM, 30 min preincubation, run in duplicate; read-out: FRET IC50

SMILES | EC50 [1] | IC50 [2]
N#C[C@@H]1C[C@@]2(CN1C(=O)[C@H](CC1CC1)NC(=O)C(=O)NC1(c3ccc(F)cc3F)CC1)C(=O)Nc1ccccc12 [Example 74] | < 100 nM | < 100 nM
CCCC[C@H](NC(=O)C(=O)Nc1ccc(F)cc1C(F)(F)F)C(=O)N1C[C@]2(C[C@H]1C#N)C(=O)Nc1ccccc12 [Example 75] | < 100 nM | < 100 nM
CCCC[C@H](NC(=O)C(=O)NC1(c2ccc(F)cc2F)CC1)C(=O)N1C[C@]2(C[C@H]1C#N)C(=O)Nc1ccccc12 [Example 76] | < 100 nM | < 100 nM
N#C[C@@H]1C[C@@]2(CN1C(=O)[C@H](CC1CC1)NC(=O)C(=O)Nc1ccc(F)cc1C(F)(F)F)C(=O)Nc1ccccc12 [Example 77] | < 100 nM | < 100 nM
Cc1cccc(C)c1NC(=O)C(=O)N[C@@H](CC(C)(C)C)C(=O)N1C[C@]2(C[C@H]1C#N)C(=O)Nc1ccccc12 [Example 84] | < 100 nM | < 100 nM
CC(C)(C)C[C@H](NC(=O)C(=O)Nc1ccc2cc(F)ccc2c1)C(=O)N1C[C@]2(C[C@H]1C#N)C(=O)Nc1ccccc12 [Example 85] | < 100 nM | < 100 nM
CCC(C)NC(=O)C(=O)N[C@@H](CC(C)(C)C)C(=O)N1C[C@]2(C[C@H]1C#N)C(=O)Nc1ccccc12 (stereo partly shown) [Example 88] | < 100 nM | < 100 nM
CC(C)(C)C[C@H](NC(=O)C(=O)Nc1cccc(F)c1)C(=O)N1C[C@]2(C[C@H]1C#N)C(=O)Nc1ccccc12 [Example 89] | < 100 nM | < 100 nM
CC(C)(C)C[C@H](NC(=O)C(=O)Nc1ccccc1F)C(=O)N1C[C@]2(C[C@H]1C#N)C(=O)Nc1ccccc12 [Example 90] | < 100 nM | < 100 nM
CC(C)(C)C[C@H](NC(=O)C(=O)Nc1c(F)cc(F)cc1F)C(=O)N1C[C@]2(C[C@H]1C#N)C(=O)Nc1ccccc12 [Example 92] | < 100 nM | < 100 nM
CC(C)(C)C[C@H](NC(=O)C(=O)Nc1ccc(F)cc1)C(=O)N1C[C@]2(C[C@H]1C#N)C(=O)Nc1ccccc12 [Example 93] | < 100 nM | < 100 nM
CC(C)(C)C[C@H](NC(=O)C(=O)Nc1ccc(F)cc1F)C(=O)N1C[C@]2(C[C@H]1C#N)C(=O)Nc1ccccc12 [Example 94] | < 100 nM | < 100 nM
CC(C)(C)C[C@H](NC(=O)C(=O)Nc1ccc2ccccc2c1)C(=O)N1C[C@]2(C[C@H]1C#N)C(=O)Nc1ccccc12 [Example 96] | < 100 nM | < 100 nM
CC(C)(C)C[C@H](NC(=O)C(=O)NC1CCCCC1)C(=O)N1C[C@]2(C[C@H]1C#N)C(=O)Nc1ccccc12 [Example 97] | < 100 nM | < 100 nM
CC(C)(C)C[C@H](NC(=O)C(=O)NC1CCCC1)C(=O)N1C[C@]2(C[C@H]1C#N)C(=O)Nc1ccccc12 [Example 98] | < 100 nM | < 100 nM
CC(C)C[C@H](NC(=O)C(=O)Nc1ccc(F)cc1)C(=O)N1C[C@]2(C[C@H]1C#N)C(=O)Nc1ccccc12 [Example 115] | < 100 nM | < 100 nM
CC(C)[C@H](NC(=O)C(=O)N[C@@H](CC(C)(C)C)C(=O)N1C[C@]2(C[C@H]1C#N)C(=O)Nc1ccccc12)c1ccccc1 [Example 116] | < 100 nM | < 100 nM
CC(C)(C)C[C@H](NC(=O)C(=O)Nc1c(Cl)cccc1Cl)C(=O)N1C[C@]2(C[C@H]1C#N)C(=O)Nc1ccccc12 [Example 117] | < 100 nM | < 100 nM
CC(C)(C)C[C@H](NC(=O)C(=O)NC1(c2ccccc2)CC1)C(=O)N1C[C@]2(C[C@H]1C#N)C(=O)Nc1ccccc12 [Example 118] | < 100 nM | < 100 nM

SMILES | EC50 [1] | IC50 [2]
CC(C)(C)C[C@H](NC(=O)C(=O)NC1(c2ccccc2)CCC1)C(=O)N1C[C@]2(C[C@H]1C#N)C(=O)Nc1ccccc12 [Example 119] | < 100 nM | < 100 nM
CC(C)(C)C[C@H](NC(=O)C(=O)NC1CC(F)(F)C1)C(=O)N1C[C@]2(C[C@H]1C#N)C(=O)Nc1ccccc12 [Example 120] | < 100 nM | < 100 nM
CC(C)(C)C[C@H](NC(=O)C(=O)Nc1c(C(F)(F)F)cccc1C(F)(F)F)C(=O)N1C[C@]2(C[C@H]1C#N)C(=O)Nc1ccccc12 [Example 138] | < 100 nM | < 100 nM
CC(C)(C)C[C@H](NC(=O)C(=O)NCc1ccccc1)C(=O)N1C[C@]2(C[C@H]1C#N)C(=O)Nc1ccccc12 [Example 159] | < 100 nM | < 100 nM
C[C@@H](NC(=O)C(=O)N[C@@H](CC(C)(C)C)C(=O)N1C[C@]2(C[C@H]1C#N)C(=O)Nc1ccccc12)c1ccccc1 [Example 160] | < 100 nM | < 100 nM
C[C@H](NC(=O)C(=O)N[C@@H](CC(C)(C)C)C(=O)N1C[C@]2(C[C@H]1C#N)C(=O)Nc1ccccc12)c1ccccc1 [Example 161] | < 100 nM | < 100 nM
CC(C)(C)C[C@H](NC(=O)C(=O)c1ccccc1)C(=O)N1C[C@]2(C[C@H]1C#N)C(=O)Nc1ccccc12 [Example 179] | 100 to 1000 nM | 100 to 1000 nM
CC(C)(C)C[C@H](NC(=O)C(=O)C(C)(C)C)C(=O)N1C[C@]2(C[C@H]1C#N)C(=O)Nc1ccccc12 [Example 180] | 100 to 1000 nM | > 1000 nM
CC(C)(C)C[C@H](NC(=O)C(=O)c1c[nH]c2ccccc12)C(=O)N1C[C@]2(C[C@H]1C#N)C(=O)Nc1ccccc12 [Example 181] | 100 to 1000 nM | 100 to 1000 nM
CC(C)(C)C[C@H](NC(=O)C(=O)c1ccccc1F)C(=O)N1C[C@]2(C[C@H]1C#N)C(=O)Nc1ccccc12 [Example 182] | 100 to 1000 nM | 100 to 1000 nM
CC(C)(C)C[C@H](NC(=O)C(=O)C1CCCCC1)C(=O)N1C[C@]2(C[C@H]1C#N)C(=O)Nc1ccccc12 [Example 183] | 100 to 1000 nM | < 100 nM
[2H]C([2H])([2H])N(C(=O)C(=O)NCc1ccc(F)cc1F)[C@@H](CC1CC1)C(=O)N1C[C@]2(C[C@H]1C#N)C(=O)Nc1ccccc12 [Example 190] | < 100 nM | < 100 nM
[2H]C([2H])([2H])N(C(=O)C(=O)NC1(c2ccc(F)cc2F)CC1)[C@@H](CC1CC1)C(=O)N1C[C@]2(C[C@H]1C#N)C(=O)Nc1ccccc12 [Example 191] | < 100 nM | < 100 nM
[2H]C([2H])([2H])N(C(=O)C(=O)NCC1(C(F)(F)F)CC1)[C@@H](CC1CC1)C(=O)N1C[C@]2(C[C@H]1C#N)C(=O)Nc1ccccc12 [Example 192] | < 100 nM | < 100 nM
[2H]C([2H])([2H])N(C(=O)C(=O)Nc1c(C(F)(F)F)cccc1C(F)(F)F)[C@@H](CC1CC1)C(=O)N1C[C@]2(C[C@H]1C#N)C(=O)Nc1ccccc12 [Example 193] | < 100 nM | < 100 nM
CC(C)C[C@H]1C(=O)N2C[C@]3(C[C@H]2C#N)C(=O)Nc2ccc(cc23)CCCCNC(=O)C(=O)N1C [Example 211] | 100 to 1000 nM | 100 to 1000 nM
CC(C)C[C@H]1C(=O)N2C[C@]3(C[C@H]2C#N)C(=O)Nc2ccc(cc23)CCCCN(Cc2ccccc2)C(=O)C(=O)N1C [Example 212] | 100 to 1000 nM | 100 to 1000 nM
CC(C)C[C@H]1C(=O)N2C[C@]3(C[C@H]2C#N)C(=O)Nc2ccc(cc23)CCCCCNC(=O)C(=O)N1C [Example 213] | 100 to 1000 nM | 100 to 1000 nM
CC(C)C[C@H]1C(=O)N2C[C@]3(C[C@H]2C#N)C(=O)Nc2ccc(cc23)/C=C\CCNC(=O)C(=O)N1C [Example 214] | 100 to 1000 nM | 100 to 1000 nM
